“Also recorded” adds a separate entry of the source. Where a SMILES comes first, the peptide text is derived from it. [ ]: non-standard residue; d: D form.
What was measured:
[1] = literature reports; cited from earlier work
kidney 293 cells [2] = assay: Morphology of cultured kidney 293 cells treated with antagonist (bright field); format: cell-based, human; settings: 100 μM, 4 days
Experimental: (§1) Cells were cultured for 4 days with 100 μM BQ788 (FIGS. A, C, and E) or with vehicle (FIGS. B, D, and F). The cell lines were melanoma line SK-MEL 28 (FIGS. A and B), melanoma line SK-MEL 5 (FIGS. C and D), and kidney 293 (FIGS. E and F). […] Pictures were taken with bright field optics at 40×magnification.
(§2) Cell culture. Human melanoma cell lines were obtained from the American Tissue Culture Collection (ATCC) and were cultured with Dulbecco's Eagle medium (ATCC), containing 10% fetal calf serum, glutamine (Gibco) and antibiotics (concentration; Pen-Strep mix, Gibco) in a humidified incubator with 5% CO2 at 37° C. BQ788 and BQ123 (Calbiochem) were dissolved in 2% polyoxythylene (60) hydrogenated castor oil (HCO60; Nikko Chemicals). Cells were cultured in 96 well ELISA plates. For the cell viability/cell number assay, the day after plating, inhibitor or vehicle was added ard the cultures incubated for 4 days. The MTS assay was used to quantify cells by measuring OD at […] (Promega).
(§3) To test the hypothesis that ETRB function plays a role in melanoma cell growth and differentiation, we cultured 7 human melanoma cell lines and one human kidney cell line with the selective ETRB antagonist, BQ788.

A375 cells = assay: MTS assay, S6c alone or in combination with BQ788; format: cell-based, human
Experimental: In experiments similar to those illustrated in FIG. 2, S6c was tested for its effects on cultured A375 cells, alone or in combination with BQ788, at various concentrations.
as §2
Thus, the ability of BQ788 to lower melanoma cell number is likely to be through its action on ETRB and not as a side effect on another aspect of melanoma cell physiology.

A375 melanoma tumor [3] = assay: Systemic (i.p.) administration, A375 melanoma grafts in nude mice; format: in vivo
Experimental: The experiment was similar to that described in FIG. 6, except that the drug and vehicle were injected daily i.p. In FIG. 7A, the data for the 6 BQ788-treated mice were pooled.
We next asked if systemic administration of BQ788 inhibits tumor growth. In these experiments, tumor induction and the starting point of the treatments were as for the intra-tumor approach. At that point, mice were injected i.p. with 100 μl of BQ788 solution (0.6 mg BQ788 in 30% water and 70% saline, at a final HCO60 concentration of 0.6%) once or twice a day for a period of 9 days. Control mice received the same injections but without BQ788. In the first experiment, mice were injected once a day, and in the second experiment the mice were injected in the morning and then again in the early evening. […] However, there was some heterogeneity in the response of the mice to BQ788.

A375 melanoma tumor [4] = assay: Intra-tumor injection, A375 melanoma grafts in nude mice; format: in vivo, nude mice (nu/nu, BALB/c background)
Experimental: Nude mice (nu/nu, BALB/c background) were implanted with grafts of A375 cells subcutaneously on the flank. After the tumors had reached approximately 4 mm in diameter they were injected daily with BQ788 for 9 days. Perpendicular tumor diameters were measured daily to estimate tumor volume. Controls were injected on the same schedule with vehicle. Data from 3 experiments utilizing 10 BQ788-treated mice and 8-vehicle treated mice were pooled. P values were calculated using t test. Similar conclusions come from measuring tumor weights.
For the in vivo experiments we chose the A375 melanoma cell line. Although this line is not the most sensitive to BQ788 treatment in culture, it is known to grow readily in nude mice. First, dissociated cells were injected as a suspension into the flank of nude mice. When tumors developed, one mouse was sacrificed, the tumor removed and cut into pieces of approximately 3 mm in diameter and implanted under the skin of a new series of nude mice. When the tumor reaches 4 mm in diameter (which takes approximately 12 days, but can vary), 25 μl of a solution containing 20, μg/μl of BQ788 dissolved in 2% polyoxythylene (60) hydrogenated castor oil (HCO60) (Ishikawa, et al., Proc. Natl. Acad. Sci. USA, 91:4892-6 (1994)) was injected into the center of the tumor daily for 9 days. Tumors in control mice were injected in the same way with 25 μl of 2% HCO60. Before each injection the tumor dimensions were measured. At the outset, the mean tumor volume was 26 mm^3 in both control and BQ788-treated mice. […] Similar conclusions come from comparison of tumor weights (means of 446 mg versus 93 mg; p<0.005).

[5] = tested on: human melanoma cell lines; assay: MTS cell viability/cell number assay, melanoma lines; format: cell-based; settings: for number of viable cells: 4 days
Experimental: Cells were cultured in the presence of BQ788 or vehicle or with no treatment for 4 days. Three wells of each condition were subjected to the MTS assay. The means were calculated and plotted as percent of the vehicle-treated value, +S.E.M. P values were calculated using […] for absolute values. The experiment was repeated 3 times, each yielding similar results.
as §2

[6] = tested on: human melanoma cell lines; assay: Morphology of cultured melanoma cells treated with antagonist (bright field); format: cell-based
Experimental: as §1, §2, §3

A375 melanoma tumor [7] = assay: Histology of tumors from the i.p. experiment (TUNEL, anti-CD31); format: in vivo, nude mice
Experimental: FIGS. 8A-8D show representative sections from 4 tumors from BQ788 injected mice and FIGS. 8E-8G show tumors from vehicle-injected mice. […] The magnification is 20×.
Immunohistochemistry. Tumors were frozen on dry ice, cut on a cryostat into 20 μm sections, and stored at −80° C. Sections were rinsed in calcium and magnesium-free phosphate buffered saline (PBS), fixed in 4% paraformaldehyde for 1 hour at room temperature, blocked with 2% rabbit serum and incubated with primary antibody overnight at 4° C. After washing in PBS sections were incubated with a biotinylated secondary antibody, and staining developed using the Elite ABC kit (Vector Laboratories, CA). The primary antibodies used in this study were monoclonal rat anti-mouse CD31 (platelet endothelial cell adhesion molecule) and rat anti-mouse CD45 (leukocyte common antigen found on all cells of hematopoietic origin, except erythrocytes) (Pharmagen, San Diego, Calif.). A cell death kit was used for TUNEL staining (Boehringer Mannheim).
Several of the tumors from the i.p. injection experiment were taken for histological examination on day 10. Sections were stained with anti-CD31 antibody for angiogenesis, and with the TUNEL method for apoptosis. […] These effects in culture appear mediated by the action of the drug on ETRB itself, as BQ788 is ineffective on A375 cells in the presence of the ETRB agonist S6c. A further indication of the specificity of the action of BQ788 is its very different effect on kidney 293 cells.

kidney 293 cells [8] = assay: MTS cell viability/cell number assay, kidney cells; format: cell-based, human; settings: high concentrations, 4 days
[9] = A375, SK-MEL 28 and RPMI 7951 cells

Molecule: CCCC[C@@H](NC(=O)[C@@H](Cc1cn(C(=O)OC)c2ccccc12)NC(=O)[C@H](CC(C)(C)C)NC(=O)N1[C@H](C)CCC[C@@H]1C)C(=O)O [BQ788, N-cis-2,6-dimethylpiperidinocarbonyl-L-γ-methylleucyl-D-1-methoxycarbonyltrptophanyl-D-norleucine]
- tolerability [1]: can be well tolerated
- morphological changes (kidney 293 cells [2]): does not result in any of these morphological changes
- effect of BQ788 on cells in the presence of S6c (A375 cells; A375 cells, ETRB agonist S6c present): ineffective
- tumor growth (A375 melanoma tumor [3]; i.p. once or twice a day for 9 days, pooled mice): inhibits melanoma tumor growth; also recorded: effective inhibition of tumor growth
- tumor growth, first subgroup of mice (A375 melanoma tumor [3]; i.p., after 6 days, one set of mice): slowed tumor growth
- tumor growth, second subgroup of mice (A375 melanoma tumor [3]; i.p., after 6 days, other set of mice): caused the tumors to regress; also recorded: the tumors shrank and displayed complete growth arrest
- tumor size versus day 1 (A375 melanoma tumor [3]; i.p., first 6 days): did not differ significantly from their size at day 1
- growth rate (final size minus initial size) compared to controls (A375 melanoma tumor [4]; 9 days, intra-tumor injection): 6 times slower
- mean tumor volume (A375 melanoma tumor [4]; after 9 days of daily intra-tumor injection, control 376 mm^3, 26 mm^3 at the outset): 84 mm^3
- tumor growth (A375 melanoma tumor [4]; intra-tumor injection daily for 9 days): inhibits melanoma tumor growth
- tumor weight (mean) (A375 melanoma tumor [4]; intra-tumor injection, control 446 mg, p<0.005): 93 mg
- viability [5, 9]: almost complete loss of viability
- sensitivity among the cell lines ([5]; RPMI 7951 cells): highest degree of sensitivity
- viability ([5]; SK-MEL 3 cells): less affected than the other lines
- viability ([5]; SK-MEL 24 and SK-MEL 31 cells): more affected
- number of viable cells ([5]; all 7 melanoma lines, 100 μM): reduces the number of viable cells; also recorded: very significant loss in the number of viable cells
- morphology [6, 9]: vacuoles in their cytoplasm
- morphology ([6]; SK-MEL 3 cells): increased surface area (dendritic morphology)
- phenotype / dendricity ([6]; SK-MEL 5 cells, 100 μM, 4 days): dendritic phenotype; also recorded: increased dendricity
- morphology ([6]; SK-MEL 24 and SK-MEL 31 cells): increased pigmentation
- morphology ([6]; SK-MEL 28 and SK-MEL 5, 100 μM, 4 days (FIG. 1 legend)): different shape and accumulation of black pigment
- morphological changes ([6]; SK-MEL 28 cells, 100 μM, 4 days): develop large cytoplasmic vacuoles and enhanced pigmentation
- surface area ([6]; all the melanoma lines): increased surface area
- pigmentation ([6]; most melanoma lines (except for SK-MEL 3)): major increases in pigmentation
- TUNEL labeling (apoptosis) (A375 melanoma tumor [7]; day 10): TUNEL-positive cells are comparatively greater
- angiogenesis (anti-CD31 staining) (A375 melanoma tumor [7]; day 10 (data not shown)): no evidence that BQ788 blocks angiogenesis
- TUNEL labeling (apoptosis) (A375 melanoma tumor [7]; day 10, listed as BQ-788): enhanced TUNEL labeling
- number of viable cells (kidney 293 cells [8]): not kidney cells; also recorded: is not reduced

Molecule: CC(C)C[C@@H]1NC(=O)[C@@H](C(C)C)NC(=O)[C@@H]2CCCN2C(=O)[C@@H](CC(=O)O)NC(=O)[C@@H](Cc2c[nH]c3ccccc23)NC1=O [BQ123] (cyclo(L[dW][dD]P[dV]))
- cell number ([5]; A375 and SK-MEL 28 melanoma lines): slightly increases cell number
- number of viable cells ([5]; any of the cell lines, even at high concentrations): does not reduce the number of viable cells; also recorded: did not inhibit melanoma cell growth in culture

Molecule: sarafotoxin 6c [S6c]
- A375 cell number (A375 cells; S6c alone, 0.1 to 1 μM): stimulates cell growth; also recorded: increases A375 cell number
- block of the effects of BQ788 on cell number (A375 cells; S6c in combination with BQ788, A375 cells): can block the inhibitory effects of the ETRB antagonist; also recorded: can completely block the effects of BQ788

Reference: US6545048B1, “Compositions and methods of treating cancer using compositions comprising an inhibitor or endothelin receptor activity” (California Institute of Technology, priority 1999, dated 2003)
